Source: ChEMBL document CHEMBL3507680, “University of Dundee, Gates Library screen for HepG2 cell viability”

assay: Human HepG2 cell viability assay in 384 well format; type: toxicity, cell-based; set-up: dose 125 nL, time 70.5 hour; cytotoxicity at 70.5 h: concentration not given beside the values; conditions: HepG2 cells, read-out: Inhibition

Row | Compound | cytotoxicity at 70.5 h [%]
1 | Cc1cc(CNCc2c(C)n(CC(C)C)c3ccccc23)[nH]n1 | -5.55
2 | COCCNC(=O)[C@@H]1C[C@H]2[C@H](CCN2c2cc(OC)ncn2)O1 | -10.5
3 | CCNC(=O)NC(=O)CNC(C)(CC)c1nc(C)cs1 (stereo not drawn) | -4.63
4 | Fc1cnccc1CN1CCCC2(CCN(c3ncccn3)CC2)C1 | -5.15
5 | Nc1ncc(-c2ccc(F)cc2)c(C2CCCNC2)n1 (stereo not drawn) | 24.3
6 | CCn1nc(C)c(CN2CCCC(c3ccc(C(=O)O)cc3)C2)c1C (stereo not drawn) | 24.4
7 | Cc1cc(CN2CC[C@H]3OCC[C@@]3(C(=O)N3CCOCC3)C2)no1 | -5
8 | CC(=O)Nc1ccc(SCC(O)COCc2ccc3c(c2)OCO3)cc1 (stereo not drawn) | -4.91
9 | Cc1nc(C)n(CC2CN(Cc3cccc4ccccc34)CCO2)n1 (stereo not drawn) | -11.6
10 | CC(=O)N(Cc1ncc(C)o1)C1CCN(Cc2cc(C)on2)C1 (stereo not drawn) | -4.42
11 | Cc1nc(C2CCNC2)nc2c1CCC(=O)N2C (stereo not drawn) | -4.12
12 | O=S(=O)(NCCN1CCOCC1)c1cncc(Cl)c1 | 4.99
13 | O=C(NCCN1CCCCC1)c1ccn(-c2ccc(F)cc2)n1 | 0.39
14 | Cc1nc(C(=O)N2CCN(S(=O)(=O)N(C)C)CC2)c(-c2ccccc2)s1 | 13.5
15 | Cc1cc(NC(=O)CNCc2csc(-c3cnccn3)n2)ccc1Cl | -6.43
16 | CC(C)c1n[nH]c(C2CN(C(=O)c3cccc4cn[nH]c34)CCO2)n1 (stereo not drawn) | 3.42
17 | O=C(Nc1nc2c(s1)CCC2)NC1CCCC1 | -9.48
18 | COCCOCC(=O)N(Cc1cccc(C)c1)C(C)C | 3.91
19 | O=C(NCc1nncn1C1CC1)C1(c2ccccc2)CCOCC1 | -6.33
20 | COc1ccccc1C1SCC(=O)Nc2n[nH]cc21 (stereo not drawn) | 3.24
21 | NC(=O)CSc1nnc2n1N=CN(c1ccccc1F)C2 | -6.75
22 | CCS(=O)(=O)Nc1ccn(Cc2ccc(F)cc2Cl)n1 | -8.72
23 | O=C(O)c1nnn(Cc2cccc(C(F)(F)F)c2)c1-c1ccccn1 | -7.66

Row | Compound | cytotoxicity at 70.5 h [%]
24 | CC(C)C(=O)N1CCCC(c2cc(C(F)F)n3ncnc3n2)C1 (stereo not drawn) | 23.9
25 | Cc1cc(OCC(=O)NS(=O)(=O)c2cccnc2)ccc1Cl | -2.82
26 | O=C1NC2(Cc3ccccc31)CN(CC1CCNCC1)C2 | 12.6
27 | CCCn1cc(Cl)c(C(=O)N2C[C@@H](O)[C@H](Oc3ccccc3)C2)n1 | 1.62
28 | CCCN1CCCC2(CCN(S(=O)(=O)c3cc(C)nn3CC)C2)C1=O (stereo not drawn) | -21.6
29 | FC(F)(F)c1ccnc(N2CCCN(C3CCOCC3)CC2)c1 | -11.5
30 | CCOCC1CN(Cc2cnn(C)c2)Cc2nn(C)cc21 (stereo not drawn) | 2.42
31 | CCN(C(=O)CS(=O)(=O)Cc1cc(Cl)c2c(c1)OCCCO2)C1CC1 | 0.0743
32 | CN1CCN(CC(C)(C)C)CC1CCO (stereo not drawn) | -3.64
33 | CC(=O)c1ccc(CNC(=O)c2c(C)cc(C)cc2C)nc1C | 3.34
34 | Cc1n[nH]cc1CNc1ccc2c(c1)CN(C(=O)OC(C)(C)C)CC2 | -6.16
35 | CCC1c2cccn2CCN1C(=O)c1ccc2nonc2c1 (stereo not drawn) | -2.25
36 | OCCN1CCN(Cc2coc(-c3cccc(F)c3)n2)CC1 | -7.98
37 | CC(C)c1cc(C(F)(F)F)n2nc(CCC(=O)O)nc2n1 | 10.3
38 | Cc1c(C(=O)NC(CN2CCCC2=O)c2ccccc2)cnn1C (stereo not drawn) | 0.932
39 | COc1cccc(C(=O)N(C)Cc2ncc(C)c(OC)c2C)c1OC | -0.629
40 | CCC(O)CN1CCN(C(=O)c2cccc3c2OCC(=O)N3)CC1 (stereo not drawn) | 27.7
41 | O=C(c1ccccc1F)N1C[C@@H]2COC[C@]2(COCc2cccnc2)C1 | -1.45
42 | CC(C)CC(c1nc(-c2cnn(C)c2)no1)N1CCCCC1=O (stereo not drawn) | -3.04
43 | CN(CC1(CO)CC1)C(=O)C1CCC(=O)N(Cc2ccc(Cl)cc2)C1 (stereo not drawn) | -1.51
44 | O=C1CC2(CCN(CCCF)CC2)CN1Cc1cc(F)cc(F)c1 | 8.23
45 | Cc1cc(CN(C)C2CCN(c3cccc(-c4cscn4)c3)CC2)on1 | -2.57
46 | Cc1cccc(-c2noc(CN3CCCC3Cn3cncn3)n2)c1 (stereo not drawn) | -1.92

Row | Compound | cytotoxicity at 70.5 h [%]
47 | COc1ccc(CN2CC[C@H]3CO[C@H](CNC(=O)N(C)C)[C@H]3C2)cc1 | -7.9
48 | COc1ccccc1Oc1cncc(C2CCCN(C)C2)n1 (stereo not drawn) | -5.97
49 | Cc1cc(CN2CCC(CNS(=O)(=O)c3ccc(C)s3)CC2)c(C)o1 | -5.87
50 | CC(C)c1nn(C)cc1CNCc1ccnc(N(C)C)c1 | -7.83
51 | CN1CC(=O)N(c2ccccc2)CC12CCN(CC1CCOCC1)C2 (stereo not drawn) | 22.5
52 | Cn1cc(CNc2ncnc3c2CCN(Cc2ccsc2)CC3)cn1 | 0.199
53 | OCC1CCN(C[C@@H]2CN(C3Cc4ccccc4C3)C[C@@H]2CO)CC1 | -4.9
54 | Cc1cc(C(C)NC(=O)c2ccc(O)nc2)c(C)o1 (stereo not drawn) | 2.4
55 | Cc1n[nH]cc1CNC(=O)Nc1cccc(OCC(F)(F)F)c1 | -6.62
56 | CN(C)C(=O)CN1CCCCC1c1nc(N)ncc1-c1cccc(F)c1 (stereo not drawn) | 34.4
57 | Fc1ccc(CNCCn2cccn2)c(Cl)c1 | 6.68
58 | CN(C)CCN1CCN(C)C2(CCN(c3nccs3)CC2)C1=O | -3.76
59 | Cn1nc(Cn2ccnc2)c2c1CN(Cc1ccoc1)C2 | 24.7
60 | CNS(=O)(=O)CC(=O)NC(C)Cc1ccc(Br)cc1 (stereo not drawn) | 2.68
61 | COCC1CC2(CCN(c3cc(OC)ncn3)CC2)CN1C(C)C (stereo not drawn) | -8.64
62 | Cc1nc[nH]c1CNCc1cccnc1N(C)C1CCCCC1 | -6
63 | OC(COc1ccccc1Br)COC1CCOCC1 (stereo not drawn) | 0.581
64 | O=C(COCc1ccccc1)N1CCN(Cc2ccccc2F)C(=O)C1 | -9.08
65 | COc1cccc(CN(C)Cc2nc(C(C)C)no2)c1 | 14.7
66 | CCNc1cc2c(nn1)CCN(C(=O)c1ccc(-n3cccn3)nc1)C2 | -15.9
67 | O=C(CO)N1CCN(C(=O)c2coc3ccccc23)CC1 | -7.53
68 | COc1ccc(CN2CC(=O)N(c3ccc(C)cc3)CC2C)cc1O (stereo not drawn) | -2.16
69 | CC(C)C(=O)N1CCC12CCCN(C(=O)c1ccccc1)C2 (stereo not drawn) | -2.99

Row | Compound | cytotoxicity at 70.5 h [%]
70 | COCCN1C(=O)CC[C@@H]2[C@H]1CCN2S(=O)(=O)c1cccs1 | 20.8
71 | CS(=O)(=O)N1CCCC1c1cccc(Cc2ccccc2F)n1 (stereo not drawn) | -6.97
72 | Cc1nnc(-c2cccc(C#N)c2)n1C1CCN(C2CC2)C1=O (stereo not drawn) | 46
73 | O=C(c1cc(C2CC2)n[nH]1)N1C[C@H]2CC[C@](O)(c3ccccc3F)[C@H]2C1 | -2.83
74 | Nc1cc(-c2cc[nH]n2)nc(N2CCCC2)n1 | 5.5
75 | CC(C)Nc1n[nH]c2nc(C3CCN(C(=O)c4ccccn4)C3)ccc12 (stereo not drawn) | 8.59
76 | Cc1occc1C(=O)N1C[C@@H]2CCCO[C@@H]2[C@H](NC(=O)CC2CC2)C1 | -7.56
77 | CC(=O)N(C)CCCc1cc(-c2ccccc2)no1 | -4.09
78 | CCC(c1ccc(F)cc1F)S(=O)(=O)CCO (stereo not drawn) | -1.73
79 | Cc1ccc(-c2noc(CN3CCOC(Cn4cncn4)C3)n2)cc1 (stereo not drawn) | -7.15
80 | COCCOCC(=O)Nc1nc2c(OC)cc(F)cc2s1 | -8.97
81 | CCc1[nH]c2c(CNC(=O)C3CCCN(C)C3)cc(C)cc2c1C (stereo not drawn) | -4.96
82 | COc1ccc(NC(=O)Cn2cc(-c3ccccc3)ncc2=O)cn1 | -6.77
83 | Cc1ccsc1CNc1ccc(C(=O)N2CCNC(=O)C2)cn1 | -2.58
84 | Cc1noc(C)c1CN(C)C(=O)NC1CCC(O)CC1 (stereo not drawn) | -8.86
85 | Cc1nc(CN2CCN(C(=O)CCc3nc(C(C)(C)C)no3)CC2)cs1 | 5.21
86 | CCC(C)(C)NC(=O)c1scnc1Cl | 12.7
87 | Cc1nc[nH]c1CN1CCOC(CCNC(=O)c2ccsc2)C1 (stereo not drawn) | 2.08
88 | CC(C)c1nccn1C1CCCN(C(=O)c2cnn(C)c2C2CC2)C1 (stereo not drawn) | 5.54
89 | COc1cccc(Cc2nnc(SC3CCOC3=O)o2)c1 (stereo not drawn) | -5.61
90 | O=S(=O)(c1ccccc1F)N1CCC(Oc2cccnn2)CC1 | -7.73
91 | Cc1occc1CNC(=O)Nc1ccc2nc(N3CCOCC3)oc2c1 | -9.42
92 | O=C(Cc1ccccc1)N1CCn2cc(Cn3cncn3)nc2C1 | 9.06

Row | Compound | cytotoxicity at 70.5 h [%]
93 | CCNc1ncc(C(=O)NCCc2csc(CSC)n2)cn1 | -4.44
94 | Cc1cc(C)n(CC2CCCCN2C(=O)c2ccc3c(c2)COC3)n1 (stereo not drawn) | 2.1
95 | NC(=O)CCn1nnc(-c2cc3ccccc3o2)n1 | -13.1
96 | O=C(c1ccnnc1)N1CCC2(CC1)CCN(C(=O)c1cccnc1)C2 | -0.196
97 | COCC(=O)N1CCC(c2csc(NC(C)=O)n2)CC1 | -8.01
98 | CSC(C)(C)CNC(=O)NCC[S+]([O-])c1ccccc1 (stereo not drawn) | -6.22
99 | Cc1nc(CN(C)C2CCN(CCC(=O)N3CCOCC3)C2)no1 (stereo not drawn) | 15.9
100 | CCCC(C)CS(=O)(=O)NCCc1csc(N2CCCC2)n1 (stereo not drawn) | -2.73
101 | O=C(Nc1ccccn1)NC1CCN(c2ccccc2OC(F)F)C1 (stereo not drawn) | -2.08
102 | Cc1csc(CN2CC[C@H]3C[C@@H](c4noc(C)n4)O[C@@H]3C2)n1 | -0.439
103 | Cc1ccoc1C(=O)N1C[C@@H](N2CCN(C)CC2)[C@H]2OCCC[C@H]21 | -4.64
104 | O=C(c1n[nH]cc1Cl)N1CCOCC1 | -6.1
105 | O=C(c1cccc(F)c1)N1CC[C@H]2[C@H]1CCN2CC1CCOCC1 | -6.77
106 | O=C(N1CCCC1)N1C[C@H]2CC[C@@H]1CN(Cc1ccncc1)C2 | 17.1
107 | O=C(c1cnnn1-c1ccccc1)N1CCCC(c2ccn[nH]2)C1 (stereo not drawn) | 48.8
108 | CC(C)CCN1CCN(C(=O)c2cccnc2-n2cncn2)CC1 | -3.48
109 | Cc1cc(-c2cnc(N3CCCC3)nc2-c2ccc(C)s2)on1 | -6.38
110 | CCOC1CC2(CCN(C(C)=O)CC2)c2cc(F)ccc21 (stereo not drawn) | -3.98
111 | CCOCC(=O)N1CCc2nc(C)nc(NC(C)C)c2CC1 | 16
112 | O=C(CCn1cnc2ccccc21)N1CCN2CCCCC2C1 (stereo not drawn) | 27.2
113 | CCOCCS(=O)(=O)N(CC)Cc1ccc(Cl)s1 | -11.4
